Measured values from patent US9365721B2, “Polycyclo dyes and use thereof” (VISEN MEDICAL, INC., priority 2007, dated 2016).

Key:
[1] = Fluorescence emission maximum (Em. max) of the fluorochrome in solvent; assay type: physicochemical
[2] = Absorption maximum (Abs. max) of the fluorochrome in solvent; assay type: physicochemical

With `CN1C2CCC1/C(=C\C=C1\N(CCCCS(=O)(=O)O)c3ccccc3C1(C)C)C(Cl)=C2/C=C/C1=[N+](CCCCS(=O)(=O)O)c2ccccc2C1(C)C` (centres unmarked) [Compound 11] the Em. max ([1]; MeOH) was 790 nm, the Em. max ([1]; water) was 775 nm and the Abs. max ([2]; MeOH) was 770 nm. The Abs. max ([2]; water) was 760 nm.
Work on `CN1C2CCC1/C(=C\C=C1\N(CCCCS(=O)(=O)O)c3ccccc3C1(C)C)C(SCCC(=O)O)=C2/C=C/C1=[N+](CCCCS(=O)(=O)O)c2ccccc2C1(C)C` (centres unmarked) [Compound 12] yielded an Em. max ([1]; MeOH) of 810 nm, an Em. max ([1]; water) of 787 nm and an Abs. max ([2]; MeOH) of 780 nm. The Abs. max ([2]; water) was 768 nm.
`CN1C2CCC1/C(=C\C=C1\N(CCCS(=O)(=O)O)c3ccc(S(=O)(=O)O)cc3C1(C)C)C(SCCC(=O)O)=C2/C=C/C1=[N+](CCCS(=O)(=O)O)c2ccc(S(=O)(=O)O)cc2C1(C)C` (centres unmarked) [Compound 13] showed an Em. max ([1]; MeOH) of 810 nm, an Em. max ([1]; water) of 797 nm and an Abs. max ([2]; MeOH) of 788 nm. The Abs. max ([2]; water) was 777 nm.
Compound `CCN1/C(=C/C=C2C(Cl)=C(/C=C/C3=[N+](CC)c4ccc5c(S(=O)(=O)O)cc(S(=O)(=O)O)cc5c4C3(C)C)C3CCC/2N3C)C(C)(C)c2c1ccc1c(S(=O)(=O)O)cc(S(=O)(=O)O)cc21` (centres unmarked) [Compound 38] has an Em. max ([1]; MeOH) of 835 nm, an Em. max ([1]; water) of 827 nm and an Abs. max ([2]; MeOH) of 814 nm. It also gave an Abs. max ([2]; water) of 805 nm.
Compound `CN1C2CCC1/C(=C\C=C1\N(CCCS(=O)(=O)O)c3ccc(S(=O)(=O)O)cc3C1(C)C)C(Cl)=C2/C=C/C1=[N+](CCCS(=O)(=O)O)c2ccc(S(=O)(=O)O)cc2C1(C)C` (centres unmarked) [Compound 39] has an Em. max ([1]; MeOH) of 802 nm, an Em. max ([1]; water) of 788 nm and an Abs. max ([2]; MeOH) of 780 nm. The Abs. max ([2]; water) was 768 nm.
